The results in this text go back to patent US9572792B2, “Coumarin compounds as receptor modulators with therapeutic utility” (Allergan, Inc., priority 2009, dated 2017).

Sequence of human S1P1 receptor (P21453 whole entry): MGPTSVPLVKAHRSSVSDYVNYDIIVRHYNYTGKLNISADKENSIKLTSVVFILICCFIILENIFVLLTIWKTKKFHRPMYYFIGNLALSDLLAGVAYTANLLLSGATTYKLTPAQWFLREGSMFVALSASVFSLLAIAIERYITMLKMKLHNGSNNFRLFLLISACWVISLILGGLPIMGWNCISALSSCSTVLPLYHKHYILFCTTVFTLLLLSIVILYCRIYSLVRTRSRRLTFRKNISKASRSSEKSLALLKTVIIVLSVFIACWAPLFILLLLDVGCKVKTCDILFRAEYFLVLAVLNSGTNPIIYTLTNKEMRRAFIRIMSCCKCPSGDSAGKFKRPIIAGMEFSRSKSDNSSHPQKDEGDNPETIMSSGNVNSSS

The test concerns the target human S1P1 receptor (Homo sapiens (Human), UniProt P21453). As to the kind of experiment: GTP γ35S binding assay. It is filed as biochemical. Particulars: S1P1 receptor from GTP γ35S; membranes of cells stably expressing the S1P1 receptor. As to the method: The S1P1 activity of the compounds according to the invention, were tested using the GTP γ^35S binding assay. The compounds were assessed for their ability to activate or block activation of the human S1P1 receptor in cells stably expressing the S1P1 receptor.
GTP γ^35S binding was measured in the medium containing (mM) HEPES 25, pH 7.4, MgCl2 10, NaCl 100, dithiothreitol 0.5, digitonin 0.003%, 0.2 nM GTP γ^35S, and 5 μg membrane protein in a volume of 150 μl. Test compounds were included in the concentration range from 0.08 to 5,000 nM unless indicated otherwise. Membranes were incubated with 100 μM 5′-adenylylimidodiphosphate for 30 min, and subsequently with 10 μM GDP for 10 min on ice. Drug solutions and membrane were mixed, and then reactions were initiated by adding GTP γ^35S and continued for 30 min at 25° C. Reaction mixtures were filtered over Whatman GF/B filters under vacuum, and washed three times with 3 mL of ice-cold buffer (HEPES 25, pH7.4, MgCl2 10 and NaCl 100). Filters were dried and mixed with scintillant, and counted for ^35S activity using a 8-counter. Agonist-induced GTP γ^35S binding was obtained by subtracting that in the absence of agonist. Binding data were analyzed using a non-linear regression method. In case of antagonist assay, the reaction mixture contained 10 nM S1P in the presence of test antagonist at concentrations ranging from 0.08 to 5000 nM.
S1P1 receptor from GTP γ^35S: nM, (EC50),
Broadly, the EC50 is the concentration that produces a half-maximal response. A low value points to an effect from little substance. `CCCc1c(OC)ccc2cc(C(=O)Nc3ccncc3Br)c(=O)oc12` [Compound 6, N-(3-bromopyridin-4-yl)-7-methoxy-2-oxo-8-propyl-2H-chromene-3-carboxamide] showed a 50% effective concentration (EC50) of 19 nM. This lies in the double-digit nanomolar range.

`CCCc1c(OC)ccc2cc(C(=O)Nc3ccccc3Br)c(=O)oc12` [Compound 5, N-(2-bromophenyl)-7-methoxy-2-oxo-8-propyl-2H-chromene-3-carboxamide] had an EC50 of 26.4 nM.

The compound `CCCc1c(OC)ccc2cc(C(=O)Nc3ccc(NC(=O)[C@H](N)CCC(=O)O)cc3C)c(=O)oc12` [Compound 62, (4R)-4-amino-5-[(4-{[(7-methoxy-2-oxo-8-propyl-2H-chromen-3-yl)carbonyl]amino}-3-methylphenyl)amino]-5-oxopentanoic acid] yielded an EC50 of 3.1 nM.

Compound `CCCc1c(OC)ccc2cc(C(=O)Nc3ccc(S(N)(=O)=O)cc3Br)c(=O)oc12` [Compound 38, N-[4-(aminosulfonyl)-2-bromophenyl]-7-methoxy-2-oxo-8-propyl-2H-chromene-3-carboxamide] displayed an EC50 of 3.5 nM.
